≈ marks a conversion by molar mass, not a printed value.
How the values were obtained:
Assay in all cases: MIC, microdilution broth method (NCCLS)
Assay type in all cases: cell-based
Details in all cases: 35° C., 16-20 hours
H. influenzae ATCC49247 = test system: H. influenzae ATCC49247
Outline: (§1)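 Broth microdilution per NCCLS M7-A4; cation-adjusted Mueller-Hinton broth, 2-fold serial dilutions; inoculum ~5×10^4 CFU/well from turbidity-adjusted log-phase culture; 35° C., 16-20 h; growth scored vs no-compound control.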

E. coli OC2605 = test system: E. coli OC2605
Outline: as §1

S. aureus ATCC29213 = test system: S. aureus ATCC29213
Outline: as §1

S. pneumoniae ATCC49619 = test system: S. pneumoniae ATCC49619
Outline: as §1

E. faecalis ATCC29212 = test system: E. faecalis ATCC29212
Outline: as §1

SMILES | MIC (E: H. influenzae ATCC49247) (H. influenzae ATCC49247) [µg/mL] | MIC (A: E. coli OC2605) (E. coli OC2605) [µg/mL] | MIC (B: S. aureus ATCC29213) (S. aureus ATCC29213) [µg/mL] | MIC (D: S. pneumoniae ATCC49619) (S. pneumoniae ATCC49619) [µg/mL] | MIC (C: E. faecalis ATCC29212) (E. faecalis ATCC29212) [µg/mL]
CC[C@H]1OC(=O)[C@H](C)C(=O)[C@H](C)[C@@H](O[C@@H]2O[C@H](C)C[C@H](N(C)C)[C@H]2O)[C@](C)(OC(=O)NOCCc2ccccc2)C[C@@H](C)C(=O)[C@H](C)[C@H]2NC(=O)O[C@@]21C [Compound 611] | 8 (≈ 10.5 µM) | >16 | 2 (≈ 2.62 µM) | 0.12 (≈ 0.157 µM) | 0.5 (≈ 0.656 µM)
CC[C@H]1OC(=O)[C@H](C)C(=O)[C@H](C)[C@@H](O[C@@H]2O[C@H](C)C[C@H](N(C)C)[C@H]2O)[C@](C)(OC(=O)NOCCCc2ccccc2)C[C@@H](C)C(=O)[C@H](C)[C@H]2NC(=O)O[C@@]21C [Compound 612] | 4 (≈ 5.16 µM) | >16 | 1 (≈ 1.29 µM) | 0.06 (≈ 0.0773 µM) | 0.25 (≈ 0.322 µM)
CC[C@H]1OC(=O)[C@H](C)C(=O)[C@H](C)[C@@H](O[C@@H]2O[C@H](C)C[C@H](N(C)C)[C@H]2O)[C@](C)(OC(=O)NNc2ccccc2)C[C@@H](C)C(=O)[C@H](C)[C@H]2NC(=O)O[C@@]21C [Compound 624] | 4 (≈ 5.46 µM) | >16 | 4 (≈ 5.46 µM) | 0.12 (≈ 0.164 µM) | 0.5 (≈ 0.682 µM)
CC[C@H]1OC(=O)[C@H](C)C(=O)[C@H](C)[C@@H](O[C@@H]2O[C@H](C)C[C@H](N(C)C)[C@H]2O)[C@](C)(OC(=O)NNCc2ccccc2)C[C@@H](C)C(=O)[C@H](C)[C@H]2NC(=O)O[C@@]21C [Compound 625] | 4 (≈ 5.36 µM) | >16 | 2 (≈ 2.68 µM) | 0.03 (≈ 0.0402 µM) | 0.25 (≈ 0.335 µM)
CC[C@H]1OC(=O)[C@H](C)C(=O)[C@H](C)[C@@H](O[C@@H]2O[C@H](C)C[C@H](N(C)C)[C@H]2O)[C@](C)(OC(=O)NNCCc2ccc(-c3ncccn3)cc2)C[C@@H](C)C(=O)[C@H](C)[C@H]2NC(=O)O[C@@]21C [Compound 626] | 4 (≈ 4.77 µM) | >16 | 0.25 (≈ 0.298 µM) | 0.03 (≈ 0.0358 µM) | 0.12 (≈ 0.143 µM)
CC[C@H]1OC(=O)[C@H](C)C(=O)[C@H](C)[C@@H](O[C@@H]2O[C@H](C)C[C@H](N(C)C)[C@H]2O)[C@](C)(OC(=O)NNCc2ccc3ncccc3c2)C[C@@H](C)C(=O)[C@H](C)[C@H]2NC(=O)O[C@@]21C [Compound 661] | 2 (≈ 2.51 µM) | >16 | 0.5 (≈ 0.627 µM) | 0.03 (≈ 0.0376 µM) | 0.12 (≈ 0.15 µM)
CC[C@H]1OC(=O)[C@H](C)C(=O)[C@H](C)[C@@H](O[C@@H]2O[C@H](C)C[C@H](N(C)C)[C@H]2O)[C@](C)(OC(=O)NNCc2ccc(-c3cccnn3)cc2)C[C@@H](C)C(=O)[C@H](C)[C@H]2NC(=O)O[C@@]21C [Compound 675] | 2 (≈ 2.42 µM) | 16 (≈ 19.4 µM) | 0.5 (≈ 0.606 µM) | 0.06 (≈ 0.0727 µM) | 0.12 (≈ 0.145 µM)
CC[C@H]1OC(=O)[C@H](C)C(=O)[C@H](C)[C@@H](O[C@@H]2O[C@H](C)C[C@H](N(C)C)[C@H]2O)[C@](C)(OC(=O)NNCc2ccc(-c3ncccn3)cc2)C[C@@H](C)C(=O)[C@H](C)[C@H]2NC(=O)O[C@@]21C [Compound 676] | 4 (≈ 4.85 µM) | 8 (≈ 9.7 µM) | 0.25 (≈ 0.303 µM) | 0.03 (≈ 0.0364 µM) | 0.12 (≈ 0.145 µM)
CC[C@H]1OC(=O)[C@H](C)C(=O)[C@H](C)[C@@H](O[C@@H]2O[C@H](C)C[C@H](N(C)C)[C@H]2O)[C@](C)(OC(=O)NN(C)C/C=C/c2ccc(-c3ncccn3)cc2)C[C@@H](C)C(=O)[C@H](C)[C@H]2NC(=O)O[C@@]21C [Compound 744] | 8 (≈ 9.25 µM) | >16 | 0.25 (≈ 0.289 µM) | 0.03 (≈ 0.0347 µM) | 0.25 (≈ 0.289 µM)
CC[C@H]1OC(=O)[C@H](C)C(=O)[C@H](C)[C@@H](O[C@@H]2O[C@H](C)C[C@H](N(C)C)[C@H]2O)[C@](C)(OC(=O)NN(C)Cc2ccc(-c3ncccn3)cc2)C[C@@H](C)C(=O)[C@H](C)[C@H]2NC(=O)O[C@@]21C [Compound 774] | 4 (≈ 4.77 µM) | >16 | 2 (≈ 2.38 µM) | 0.06 (≈ 0.0715 µM) | 0.25 (≈ 0.298 µM)
CC[C@H]1OC(=O)[C@H](C)C(=O)[C@H](C)[C@@H](O[C@@H]2O[C@H](C)C[C@H](N(C)C)[C@H]2O)[C@](C)(OC(=O)NN(C)CCc2ccc(-c3ncccn3)cc2)C[C@@H](C)C(=O)[C@H](C)[C@H]2NC(=O)O[C@@]21C [Compound 803] | 4 (≈ 4.69 µM) | >16 | 0.25 (≈ 0.293 µM) | 0.03 (≈ 0.0352 µM) | 0.12 (≈ 0.141 µM)

— patent publication US6825170B2, “6-O-acyl ketolide antibacterials” (Ortho-McNeil Pharmaceutical, Inc., priority 2001, dated 2004)
